For 5 compounds, MIC and EC50 results are on record in patent US20240270762A1, “PENICILLIN-BINDING PROTEIN INHIBITORS” (priority 2021, published 2024).

The test system of assay [1] is P. aeruginosa ATCC 27853. Kind of assay: microbe, parasite or virus in culture. The assay is classed as cell-based. To be noted: Pseudomonas aeruginosa, ATCC27853, read-out: Minimum inhibitory concentration, P. aeruginosa ATCC 27853.
For assay [2], the system named is B. thailandensis ATCC 700388. Kind of assay: microbe, parasite or virus in culture. The assay is classed as cell-based. To be noted: Burkholderia thailandensis, ATCC700388, read-out: Minimum inhibitory concentration (MIC), B. thailandensis ATCC 700388.
For assay [3], the system named is P. aeruginosa CDC-0110. Kind of assay: microbe, parasite or virus in culture. Format: cell-based. To be noted: Pseudomonas aeruginosa, CDC0110, read-out: Minimum inhibitory concentration, P. aeruginosa CDC-0110.
Assay [4] concerns P. aeruginosa CDC-0090. Description: microbe, parasite or virus in culture. The assay is classed as cell-based. To be noted: Pseudomonas aeruginosa, CDC0090, read-out: Minimum inhibitory concentration, P. aeruginosa CDC-0090.
Assay [5] concerns the target A. baumannii PBP2 (Acinetobacter baumannii, UniProt D0C8Z9). Kind of assay: Bocillin-FL competition binding via gel filtration, A. baumannii PBP2. Put shortly: (§1)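 Competitive equilibrium binding; reporter Bocillin-FL. PBP + inhibitor (titration) pre-incubated → Bocillin-FL, 15 min → gel filtration → fluorescence. EC50 from Hill fit of fraction bound vs [inhibitor].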
Background: SEC sorts molecules by how far they enter the pores of the column.

The test system of assay [6] is P. aeruginosa ATCC 35151. Kind of assay: microbe, parasite or virus in culture. To be noted: Pseudomonas aeruginosa, ATCC35151, read-out: Minimum inhibitory concentration, P. aeruginosa ATCC 35151. Format: cell-based.
Assay [7] deals with P. aeruginosa (ΔmexAB-oprM). Description: Broth microdilution MIC in iron-depleted CAMHB (IDM). Format: cell-based. To be noted: Pseudomonas aeruginosa, read-out: Minimum inhibitory concentration, P. aeruginosa ΔmexAB-oprM.
Assay [8] addresses T1, A. baumannii PBP1a (Acinetobacter baumannii, UniProt A0ABX6CK30).
T1 sequence (A0ABX6CK30 1-851): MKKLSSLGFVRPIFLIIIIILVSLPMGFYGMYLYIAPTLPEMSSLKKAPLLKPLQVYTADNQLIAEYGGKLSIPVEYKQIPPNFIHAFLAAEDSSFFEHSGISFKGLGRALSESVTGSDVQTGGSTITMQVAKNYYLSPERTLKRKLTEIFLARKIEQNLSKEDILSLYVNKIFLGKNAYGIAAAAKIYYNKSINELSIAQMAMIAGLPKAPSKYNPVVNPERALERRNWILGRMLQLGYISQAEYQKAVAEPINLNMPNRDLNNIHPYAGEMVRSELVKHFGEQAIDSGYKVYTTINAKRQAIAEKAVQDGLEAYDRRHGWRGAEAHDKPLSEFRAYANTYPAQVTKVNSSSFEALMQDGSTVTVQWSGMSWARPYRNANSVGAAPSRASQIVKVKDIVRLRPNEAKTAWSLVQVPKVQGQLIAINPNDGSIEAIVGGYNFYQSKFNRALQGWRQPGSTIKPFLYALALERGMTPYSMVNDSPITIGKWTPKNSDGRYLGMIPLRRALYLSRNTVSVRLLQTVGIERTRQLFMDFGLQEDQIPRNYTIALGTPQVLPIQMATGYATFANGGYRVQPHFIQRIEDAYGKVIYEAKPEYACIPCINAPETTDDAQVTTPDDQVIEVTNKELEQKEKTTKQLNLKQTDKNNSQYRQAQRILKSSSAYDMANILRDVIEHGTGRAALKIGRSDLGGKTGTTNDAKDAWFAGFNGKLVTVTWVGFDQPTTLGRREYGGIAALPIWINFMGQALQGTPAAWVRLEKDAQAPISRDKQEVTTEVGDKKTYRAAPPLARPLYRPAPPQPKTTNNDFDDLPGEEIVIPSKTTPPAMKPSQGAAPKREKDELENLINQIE
Kind of assay: Bocillin-FL competition binding via gel filtration, A. baumannii PBP1a. To be noted: competition binding assay using Bocillin-FL via gel filtration; read-out: A. baumannii PBP1a Potency. In short, it runs like this:
as §1

For assay [9], the system named is P. aeruginosa CDC-0095. Description: microbe, parasite or virus in culture. The assay is classed as cell-based. To be noted: Pseudomonas aeruginosa, CDC0095, read-out: Minimum inhibitory concentration, P. aeruginosa CDC-0095.
Assay [10] concerns P. aeruginosa CDC-0054. Kind of assay: microbe, parasite or virus in culture. Format: cell-based. To be noted: Pseudomonas aeruginosa, CDC0054, read-out: Minimum inhibitory concentration, P. aeruginosa CDC-0054.
Assay [11] relates to B. pseudomallei Bp82. Kind of assay: microbe, parasite or virus in culture. Format: cell-based. To be noted: Burkholderia pseudomallei, BP82, read-out: Minimum inhibitory concentration, B. pseudomallei Bp82.
Assay [12] deals with B. humptydooensis ATCC BAA-2767. Kind of assay: microbe, parasite or virus in culture. Format: cell-based. To be noted: Burkholderia humptydooensis, ATCCBAA2767, read-out: Minimum inhibitory concentration (MIC), B. humptydooensis ATCC BAA-2767.

≈ marks a conversion by molar mass, not a printed value. Where only a bound is given, the exact number is not on record here.

Chain of A. baumannii PBP2 (D0C8Z9 whole entry): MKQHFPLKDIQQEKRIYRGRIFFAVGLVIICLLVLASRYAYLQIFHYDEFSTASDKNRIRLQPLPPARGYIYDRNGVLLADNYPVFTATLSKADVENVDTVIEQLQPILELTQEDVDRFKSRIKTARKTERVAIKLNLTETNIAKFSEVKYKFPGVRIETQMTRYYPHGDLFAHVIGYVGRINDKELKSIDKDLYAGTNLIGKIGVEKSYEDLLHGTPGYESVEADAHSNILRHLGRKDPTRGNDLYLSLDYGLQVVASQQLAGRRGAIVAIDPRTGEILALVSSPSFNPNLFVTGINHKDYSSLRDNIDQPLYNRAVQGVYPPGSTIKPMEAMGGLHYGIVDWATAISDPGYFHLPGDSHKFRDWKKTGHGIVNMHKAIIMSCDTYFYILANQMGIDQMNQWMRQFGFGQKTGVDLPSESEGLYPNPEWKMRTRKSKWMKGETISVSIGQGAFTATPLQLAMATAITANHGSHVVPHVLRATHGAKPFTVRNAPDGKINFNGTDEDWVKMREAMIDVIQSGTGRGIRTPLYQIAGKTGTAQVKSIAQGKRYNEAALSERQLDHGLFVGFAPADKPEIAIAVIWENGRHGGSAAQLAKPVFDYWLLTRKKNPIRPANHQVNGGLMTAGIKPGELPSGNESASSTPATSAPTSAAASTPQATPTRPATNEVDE

Take `O=C(O)c1c(F)ccc2c1OB(O)[C@@H](NC(=O)[C@H](NC(=O)N1CCN(C3CCN(Cc4cncc(O)c4)CC3)C1=O)c1cc(F)c(O)c(O)c1Cl)C2` (single isomer, unassigned) [Example 614]: the MIC in assay [1], in assay [2], in [3], in assay [4], in assay [6] and in [7] was less than 1 µg/mL in each case. Besides, the MIC in assay [9] is 2 to 4 µg/mL (≈ 2.68 to 5.37 µM); in [10], 2 to 4 µg/mL (≈ 2.68 to 5.37 µM); in assay [11] it was less than 1 µg/mL; in [12], less than 1 µg/mL. In addition, the EC50 in assay [5] and in [8] was 10 to 50 µM each time.
Consider `NCc1cc(O)cc(CN2CCC(N3CCN(C(=O)N[C@@H](C(=O)N[C@H]4Cc5ccc(F)c(C(=O)O)c5OB4O)c4cc(F)c(O)c(O)c4Cl)C3=O)CC2)c1` (single isomer, unassigned) [Example 617], for which the MIC in assay [1], in assay [2], in [3], in assay [4], in assay [6] and in assay [7] was less than 1 µg/mL throughout. The MIC in [9], in assay [10], in assay [11] and in assay [12] was less than 1 µg/mL throughout. Further, the EC50 fell in the range of 50 to 250 µM in assay [5] and 10 to 50 µM in [8].
Take `Nc1ccc(CN2CCC(N3CCN(C(=O)N[C@@H](C(=O)N[C@H]4Cc5ccc(F)c(C(=O)O)c5OB4O)c4cc(F)c(O)c(O)c4Cl)C3=O)CC2)cn1` (single isomer, unassigned) [Example 618]: the MIC in [1], in assay [2], in assay [3], in assay [4], in [6] and in assay [7] was less than 1 µg/mL throughout. Moreover, the MIC was 2 to 4 µg/mL (≈ 2.69 to 5.38 µM) in assay [9], less than 1 µg/mL in assay [10], less than 1 µg/mL in assay [11] and less than 1 µg/mL in assay [12]. The EC50 in [5] and in [8] was 10 to 50 µM in each case.
As for `O=C(O)c1c(F)ccc2c1OB(O)[C@@H](NC(=O)[C@H](NC(=O)N1CCN(C3CCN(Cc4ccncn4)CC3)C1=O)c1cc(F)c(O)c(O)c1Cl)C2` [Example 602, (R)-3-((R)-2-(2-chloro-5-fluoro-3,4-dihydroxyphenyl)-2-(2-oxo-3-(1-(pyrimidin-4-ylmethyl)piperidin-4-yl)imidazolidine-1-carboxamido)acetamido)-7-fluoro-2-hydroxy-3,4-dihydro-2H-benzo[e][1,2]oxaborinine-8-carboxylic acid], the MIC in assay [1], in assay [2], in [3], in assay [4], in [6] and in assay [7] was less than 1 µg/mL each time. Further, the MIC in assay [9] is 2 to 4 µg/mL (≈ 2.74 to 5.48 µM); in assay [10], less than 1 µg/mL; in [11], less than 1 µg/mL; in [12], less than 1 µg/mL. The EC50 is 10 to 50 µM in assay [5] and less than 10 µM in assay [8].
For the compound `Nc1cc(CN2CCC(N3CCN(C(=O)N[C@@H](C(=O)N[C@H]4Cc5ccc(F)c(C(=O)O)c5OB4O)c4cc(F)c(O)c(O)c4Cl)C3=O)CC2)ccn1` [Example 619, (R)-3-((R)-2-(3-(1-((2-aminopyridin-4-yl)methyl)piperidin-4-yl)-2-oxoimidazolidine-1-carboxamido)-2-(2-chloro-5-fluoro-3,4-dihydroxyphenyl)acetamido)-7-fluoro-2-hydroxy-3,4-dihydro-2H-benzo[e][1,2]oxaborinine-8-carboxylic acid], the MIC in assay [1], in assay [2], in [3], in assay [4], in [6] and in assay [7] was less than 1 µg/mL in each case. Further, the MIC in [9], in assay [10] and in assay [12] was less than 1 µg/mL in each case. Further, the EC50 in assay [5] is 10 to 50 µM; in assay [8], less than 10 µM.
